These results are taken from ChEMBL document CHEMBL1130072, “Probing the active sites of monoamine oxidase A and B with 1,4-disubstituted tetrahydropyridine substrates and inactivators” (J Med Chem, 1997).

The target of data set [1] is T1, Amine oxidase [flavin-containing] B (Bos taurus, UniProt P56560).
T1 sequence (P56560 whole entry): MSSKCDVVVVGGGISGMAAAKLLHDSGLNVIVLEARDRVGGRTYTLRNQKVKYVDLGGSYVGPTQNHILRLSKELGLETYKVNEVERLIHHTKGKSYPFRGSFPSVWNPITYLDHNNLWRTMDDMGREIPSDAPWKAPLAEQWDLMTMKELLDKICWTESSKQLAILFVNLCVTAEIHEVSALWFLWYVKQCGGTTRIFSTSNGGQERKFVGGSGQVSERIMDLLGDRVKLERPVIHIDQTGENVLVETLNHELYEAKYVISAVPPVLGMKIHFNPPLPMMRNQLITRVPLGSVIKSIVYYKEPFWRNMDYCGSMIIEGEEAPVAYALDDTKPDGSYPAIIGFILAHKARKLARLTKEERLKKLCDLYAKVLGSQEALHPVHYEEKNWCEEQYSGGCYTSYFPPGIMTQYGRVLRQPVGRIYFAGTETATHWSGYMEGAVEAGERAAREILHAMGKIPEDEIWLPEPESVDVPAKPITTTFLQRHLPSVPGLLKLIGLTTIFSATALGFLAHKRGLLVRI
The data set can be described thus: Tested for maximum velocity of monoamine oxidase B catalyzed oxidation. Further details: unit not given here.

Data set [2] has as its target T2, Amine oxidase [flavin-containing] A (Homo sapiens, UniProt P21397).
T2 sequence (P21397 whole entry): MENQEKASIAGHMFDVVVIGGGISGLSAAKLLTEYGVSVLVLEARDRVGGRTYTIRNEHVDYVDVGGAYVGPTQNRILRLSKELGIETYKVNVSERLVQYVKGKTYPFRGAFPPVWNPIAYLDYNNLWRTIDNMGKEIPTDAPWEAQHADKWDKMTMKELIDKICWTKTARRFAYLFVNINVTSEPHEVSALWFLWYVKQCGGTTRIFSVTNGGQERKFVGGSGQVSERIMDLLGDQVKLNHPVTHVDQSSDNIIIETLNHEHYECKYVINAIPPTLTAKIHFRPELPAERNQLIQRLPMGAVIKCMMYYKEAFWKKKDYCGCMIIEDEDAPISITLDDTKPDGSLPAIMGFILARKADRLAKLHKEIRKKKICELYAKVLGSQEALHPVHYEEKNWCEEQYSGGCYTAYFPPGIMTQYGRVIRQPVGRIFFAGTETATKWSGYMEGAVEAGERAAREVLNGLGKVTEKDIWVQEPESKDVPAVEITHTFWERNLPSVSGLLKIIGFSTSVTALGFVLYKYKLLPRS
The data set can be described thus: Tested for maximum velocity of monoamine oxidase A catalyzed oxidation. Further details: unit not given here.

The target in data set [3] is T3, Amine oxidase [flavin-containing] B (Homo sapiens, UniProt P27338).
T3 sequence (P27338 whole entry): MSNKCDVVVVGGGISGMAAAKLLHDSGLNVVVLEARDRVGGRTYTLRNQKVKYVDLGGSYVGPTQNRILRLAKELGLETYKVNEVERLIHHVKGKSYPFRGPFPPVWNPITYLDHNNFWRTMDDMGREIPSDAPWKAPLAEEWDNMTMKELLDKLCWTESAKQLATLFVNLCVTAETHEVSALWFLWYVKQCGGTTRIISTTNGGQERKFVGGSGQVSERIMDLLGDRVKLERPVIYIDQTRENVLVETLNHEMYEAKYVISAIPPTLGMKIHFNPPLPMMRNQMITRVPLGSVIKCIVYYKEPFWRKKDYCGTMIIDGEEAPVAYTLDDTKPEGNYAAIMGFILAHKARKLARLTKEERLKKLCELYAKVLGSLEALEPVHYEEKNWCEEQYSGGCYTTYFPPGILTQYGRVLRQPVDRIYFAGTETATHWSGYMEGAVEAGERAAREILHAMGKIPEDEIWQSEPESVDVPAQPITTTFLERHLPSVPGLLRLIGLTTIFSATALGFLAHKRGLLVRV
The data set can be described thus: Vmax/Km values for MAO-B. Further details: unit not given here.

Data set [4] concerns the target T2, Amine oxidase [flavin-containing] A. The data set can be described thus: Vmax/Km values for MAO-A. On the set-up: unit not given here.
Another data set has as its target T4, Monoamine oxidase (Homo sapiens, UniProt P21397+P27338).
T4 sequence (P21397 whole entry): T2 sequence (P21397 whole entry)
T4 sequence (P27338 whole entry): T3 sequence (P27338 whole entry)
In words: Selectivity Coefficient measured as ratio of Vmax/Km value of MAO-B to that of MAO-A. It counts as protein assay.

For data set [5], the target named is T2, Amine oxidase [flavin-containing] A. In words: Tested for Kinetic data against the monoamine oxidase A catalyzed oxidation.
Data set [6] addresses T1, Amine oxidase [flavin-containing] B. The data set can be described thus: Tested for Kinetic data against the monoamine oxidase B catalyzed oxidation.
Data set [7] concerns the target T2, Amine oxidase [flavin-containing] A. The data set can be described thus: Tested for Kinetic data against the monoamine oxidase A catalyzed oxidation;NSD = No substrate properties detected.
Data set [8] has the same target. In words: Tested for inhibition- binding affinity against monoamine oxidase A catalyzed oxidation; NID = no inactivation properties detected.
Data set [9] shares this target. The data set can be described thus: Tested for Km, the substrate concentration with gives half maximum velocity of the monoamine oxidase A catalyzed oxidation; NSD = no substrate properties detected.
Data set [10] has as its target T1, Amine oxidase [flavin-containing] B. In words: Tested for Km, the substrate concentration with gives half maximum velocity of the monoamine oxidase B catalyzed oxidation; NSD = no substrate properties detected.
For data set [11] the target is unchanged. The data set can be described thus: Tested for inhibition- binding affinity against monoamine oxidase B catalyzed oxidation; NID = no inactivation properties detected.

Structures are written as SMILES.

Turning to `CN1CC=C(c2ccc3ccccc3c2)CC1`, the Vmax in [1] is reported as 42; in data set [2], 204. For the same compound, the Ratio in data set [3] is 71; in [4], 443.

For the compound `CN1CC=C(c2ccccc2)CC1`, the Vmax in data set [1] amounted to 204; in [2], 20. The Selectivity coefficient at Monoamine oxidase came to 3.65. For the same compound, the Ratio in [3] came out at 523; in data set [4], 143.

`CN1CC=C(c2cccc3ccccc23)CC1`: the Vmax in data set [1] was 51; in [2], 526. Further, the Ratio turned out to be 364 in [3] and 862 in [4].

Regarding `CCc1ccccc1C1=CCN(C)CC1`, the Selectivity coefficient on Monoamine oxidase amounted to 0.43. The figures for the “Vmax / Km” value in [5] and in [6] were 11500 M⁻¹ s⁻¹ and 4920 M⁻¹ s⁻¹, respectively.

Take `CC(C)c1ccccc1C1=CCN(C)CC1`: the Selectivity coefficient on Monoamine oxidase turned out to be 0.05. The “Vmax / Km” value in data set [5] came out at 18700 M⁻¹ s⁻¹; in data set [6], 850 M⁻¹ s⁻¹.

Regarding `CN1CC=C(c2c[nH]c3ccccc23)CC1.O=C(O)C(=O)O`, the Vmax in data set [1] was determined as 358. In addition, in data set [6], the “Vmax / Km” value came to 6620 M⁻¹ s⁻¹.

Turning to `COc1cccc(C2=CCN(C)CC2)c1`, the entries for the “Vmax / Km” value in data set [7] and in [6] were “No substrate detected” and 15600 M⁻¹ s⁻¹, respectively.

As to `CN1CC=C(c2cccc(Oc3ccccc3)c2)CC1`, in data set [5], the “Vmax / Km” value was 92800 M⁻¹ s⁻¹.

For `C1=C(c2ccc(-c3ccccc3)cc2)CCN(C2CC2)C1`, the Ki result in data set [8] is on record as “No inhibition”.

As for `CN1CC=C(c2cccc(-c3ccccc3)c2)CC1`, the Vmax in [1] was determined as 153. Besides, the Km entry in data set [9] is listed as “No substrate detected”. The Ratio in [3] turned out to be 157.

Take `CN1CC=C(c2ccc(-c3ccccc3)cc2)CC1`: the Km entry in [10] and in data set [9] was “No substrate detected” in each case.

In the case of `Cc1ccccc1C1=CCN(C)CC1`, on Monoamine oxidase, the Selectivity coefficient came out at 2.19. The “Vmax / Km” value came to 9800 M⁻¹ s⁻¹ in [5] and 21470 M⁻¹ s⁻¹ in data set [6].

Consider `C1=C(c2ccccc2-c2ccccc2)CCN(C2CC2)C1`, for which, in data set [11], the Ki entry is “No inhibition”.

Turning to `Cc1cccc(C2=CCN(C)CC2)c1`, the Selectivity coefficient at Monoamine oxidase turned out to be 8.5. Further, the “Vmax / Km” value is 1270 M⁻¹ s⁻¹ in [5] and 10800 M⁻¹ s⁻¹ in data set [6].

In the case of `CN1CC=C(c2ccccc2-c2ccccc2)CC1`, the results for the Vmax in [1] and in [2] were 20 and 107, respectively. Further, the Ratio came to 12 in [3] and 892 in data set [4].
